Measurements published in the supplement of paper PMC10307832.

Compound: Cn1cncc1[C@@](N)(c1ccc(Cl)cc1)c1ccc2c(c1)c(-c1cccc(Cl)c1)cc(=O)n2C [Tipifarnib] + CC(=O)Nc1cccc(-n2c(=O)n(C3CC3)c(=O)c3c(Nc4ccc(I)cc4F)n(C)c(=O)c(C)c32)c1 [Trametinib] (partner 0.02 µM)
Assay: relative viability (nuclei count vs DMSO), 5 days (fraction); higher = more cells survive
Method in brief: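 Relative viability divides the nuclei count in treated wells by that in vehicle wells. Lung cancer cell lines were seeded in 1536-well plates, dosed by pin tool the next day, and fixed and stained after 5 days in one step with final 0.05% Triton X-100, 1% formaldehyde and 1 ug/ml Hoechst. Dosing was a single drug or a fixed anchor-drug dose plus five library-drug doses (not always all listed) in √10 steps, and values are medians of duplicate plates imaged at 4×.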

| Cell Line | relative viability (first compound 0.01 µM) | relative viability (first compound 0.03162 µM) | relative viability (first compound 0.1 µM) | relative viability (first compound 0.3162 µM) | relative viability (first compound 1 µM) |
| --- | --- | --- | --- | --- | --- |
| 201T | 0.75 | 0.734 | 0.722 | 0.656 | 0.649 |
| A-427 | 0.872 | 0.758 | 0.633 | 0.654 | 0.549 |
| BEN | 0.95 | 0.87 | 0.873 | 0.856 | 0.761 |
| CAL-12T | 0.359 | 0.289 | 0.234 | 0.222 | 0.177 |
| COR-L23 | 0.609 | 0.301 | 0.329 | 0.33 | 0.277 |
| COR-L 105 | 0.409 | 0.491 | 0.427 | 0.43 | 0.369 |
| ChaGo-K-1 | 0.96 | 0.942 | 0.868 | 0.853 | 0.674 |
| EKVX | 0.261 | 0.35 | 0.244 | 0.298 | 0.264 |
| EMC-BAC-2 | 0.81 | 0.754 | 0.655 | 0.606 | 0.614 |
| EPLC-272H | 0.336 | 0.274 | 0.246 | 0.303 | 0.234 |
| H3255 | 0.674 | 0.576 | 0.542 | 0.458 | 0.471 |
| HARA | 0.784 | 0.77 | 0.635 | 0.588 | 0.508 |
| HCC-15 | 0.36 | 0.35 | 0.273 | 0.258 | 0.221 |
| HCC-44 | 0.992 | 0.942 | 0.908 | 0.781 | 0.891 |
| HCC-78 | 0.966 | 0.766 | 0.647 | 0.623 | 0.664 |
| HCC-366 | 0.415 | 0.371 | 0.197 | 0.147 | 0.102 |
| HCC-827 | 0.529 | 0.598 | 0.481 | 0.479 | 0.504 |
| HOP-62 | 0.375 | 0.297 | 0.258 | 0.261 | 0.282 |

| Cell Line | relative viability (first compound 0.01 µM) | relative viability (first compound 0.03162 µM) | relative viability (first compound 0.1 µM) | relative viability (first compound 0.3162 µM) | relative viability (first compound 1 µM) |
| --- | --- | --- | --- | --- | --- |
| LC-2-ad | 0.938 | 0.661 | 0.669 | 0.561 | 0.532 |
| LCLC-97TM1 | 0.202 | 0.209 | 0.171 | 0.17 | 0.157 |
| LCLC-103H | 0.649 | 0.674 | 0.646 | 0.642 | 0.667 |
| LK-2 | 0.613 | 0.971 | 0.766 | 0.559 | 0.597 |
| LOU-NH91 | 0.825 | 0.747 | 0.73 | 0.69 | 0.723 |
| LU99A | 0.394 | 0.431 | 0.312 | 0.25 | 0.209 |
| LXF-289 | 0.71 | 0.684 | 0.695 | 0.557 | 0.64 |
| NCI-H23 | 0.368 | 0.493 | 0.398 | 0.292 | 0.204 |
| NCI-H322M | 0.492 | 0.565 | 0.519 | 0.542 | 0.548 |
| NCI-H358 | 0.143 | 0.102 | 0.133 | 0.107 | 0.135 |
| NCI-H441 | 0.429 | 0.319 | 0.372 | 0.228 | 0.225 |
| NCI-H460 | 0.142 | 0.0861 | 0.0817 | 0.0529 | 0.0386 |
| NCI-H520 | 0.87 | 0.642 | 0.7 | 0.521 | 0.315 |
| NCI-H596 | 0.759 | 1 | 0.593 | 0.53 | 0.527 |
| NCI-H647 | 0.475 | 0.419 | 0.418 | 0.254 | 0.225 |
| NCI-H650 | 1.09 | 0.911 | 0.841 | 0.696 | 0.549 |
| NCI-H661 | 0.627 | 0.487 | 0.482 | 0.396 | 0.456 |
